The results in this text go back to patent US20160318987A1 (MEDIMMUNE LIMITED, priority 2013, published 2016).

The EC50 is the concentration giving half of the maximal effect. For orientation: fraction remaining means what is left of the initial amount, in per cent.

For one data set, the system named is Trypsin. Kind of data set: 1 mg/mL lyophilized trypsin from porcine pancreas in 50 mM Tris, 10 mM CaCl2, 150 mM NaCl, 1 mM HCl, pH 7.8. The following applies: 37° C., up to over 18 hours.
The subject of data set [1] is Neprilysin (Neutral endopeptidase, rhNEP). The data set can be described thus: 1.0 μg rhNEP in 900 μL assay buffer: 50 mM Tris, 50 mM NaCl, 50 mM NaHCO3, pH 8.3. The note with it: 37° C., up to 240 hours.
Data set [2] relates to Chymotrypsin (rhCTRC). Kind of data set: 1.0 μg rhCTRC in 900 μL assay buffer: 50 mM Tris, 10 mM CaCl2, 150 mM NaCl, 1 mM HCl, pH 7.8. The following applies: 37° C., up to over 60 hours.
Data set [3] deals with T1, Chymotrypsin (rhCTRC) (Homo sapiens, UniProt Q99895).
T1 construct: purchased R&D Systems 6907-SE-010
T1 sequence (Q99895 30-268): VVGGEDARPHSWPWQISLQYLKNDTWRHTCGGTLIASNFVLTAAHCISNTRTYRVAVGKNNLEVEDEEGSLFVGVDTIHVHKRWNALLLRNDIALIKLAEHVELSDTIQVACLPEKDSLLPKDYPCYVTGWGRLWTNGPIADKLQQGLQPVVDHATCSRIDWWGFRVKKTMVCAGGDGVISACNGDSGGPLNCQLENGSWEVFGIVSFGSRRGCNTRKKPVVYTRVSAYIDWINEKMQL
The data set can be described thus: chymotrypsin stability study (LC/MS). The data set is classed as in vitro ADME. The note with it: chymotrypsin. How it is done:
(§1) Peptides for evaluation were prepared to a concentration of 1.0 mg/mL solutions in either pure water, sterile saline for injection (0.9% w/v NaCl/water) or 1× PBS (Dulbecco). 100 μL (100 μg/mL peptide) of these solutions was added to 900 μL of each protease solution. Additional experiments were performed examining protein degradation during exposure to serum and gastric fluid. For serum studies, peptides were incubated with 50% female Sprague-Dawley strain rat serum (SD rat serum). For gastric fluid studies, peptides were incubated 1:1 (volume:volume), fresh rat gastric fluid.
(§2) The peptide and enzyme (or serum or gastric fluid) were co-incubated in a temperature regulated water bath at 37° C. for the duration of the experiment. During each experiment 100 μL aliquots (10 μg peptide) of the incubated peptide-enzyme mixture were withdrawn periodically, quenched by addition of an equal volume of 5% TFA (v/v) in 1:1 water/acetonitrile to arrest proteolytic activity, and analyzed by liquid chromatography-mass spectrometry (LC/MS): Agilent Polaris C8-A column (4.6×100 mm, 3 micron) using a linear binary gradient of 10-90% MeCN (0.1% TFA v/v) in water (0.1% TFA v/v) over 30 minutes at 1.5 mL min^−1 at ambient temperature. Analytes were detected by both UV absorption at 210 nm and ionization using a Waters 3100 mass detector (ESI^+ mode). New peptidic species (fragments) derived from enzymatic cleavage of peptides were analyzed post-process, and their molecular masses were used to identify the precise cleavage position (highlighting the scissile bond in each case).

The next data set addresses T2, hGIP-R (Homo sapiens, UniProt P48546).
T2 construct: expressed in transfected cells
T2 sequence (P48546 22-466): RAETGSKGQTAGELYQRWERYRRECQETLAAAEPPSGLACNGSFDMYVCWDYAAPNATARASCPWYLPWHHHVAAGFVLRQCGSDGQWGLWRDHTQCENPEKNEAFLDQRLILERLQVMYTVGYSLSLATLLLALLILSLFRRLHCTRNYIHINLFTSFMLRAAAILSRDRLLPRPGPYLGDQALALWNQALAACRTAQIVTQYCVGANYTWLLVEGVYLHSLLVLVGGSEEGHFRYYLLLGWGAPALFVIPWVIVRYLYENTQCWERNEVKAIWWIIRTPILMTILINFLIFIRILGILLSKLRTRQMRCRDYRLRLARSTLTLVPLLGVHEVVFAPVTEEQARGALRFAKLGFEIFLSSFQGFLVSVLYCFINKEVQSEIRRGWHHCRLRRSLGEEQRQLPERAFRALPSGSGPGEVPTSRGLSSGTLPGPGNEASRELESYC
Kind of data set: cAMP functional assay, cells expressing human GIP receptor (primary assay). The data set is classed as cell-based. The note with it: n = 2.

In data set [4] the target is T3, trypsin from porcine pancreas (Sus scrofa, UniProt P00761).
T3 construct: purchased Sigma P7409; host or cells: porcine pancreas
T3 sequence (P00761 9-231): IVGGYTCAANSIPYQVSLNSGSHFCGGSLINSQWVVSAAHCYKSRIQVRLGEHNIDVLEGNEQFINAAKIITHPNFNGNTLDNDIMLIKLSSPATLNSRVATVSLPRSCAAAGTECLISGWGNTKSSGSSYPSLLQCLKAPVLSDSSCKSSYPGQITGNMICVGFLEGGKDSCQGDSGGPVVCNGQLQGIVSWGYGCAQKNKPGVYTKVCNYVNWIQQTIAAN
The data set can be described thus: trypsin stability study (LC/MS). The data set is classed as in vitro ADME. As for the experimental part:
as §1, §2

Data set [5] is described as follows: serum stability study (LC/MS). The note with it: female, Sprague-Dawley; 50% SD rat serum, after 60 hours; read-out: peptide remaining intact. The data set is classed as in vitro ADME. How it is done: as §1
as §2, with “New peptidic species (fragments) derived from enzymatic cleavage of peptides were analyzed post-process, and their molecular masses were used to identify the precise cleavage position (highlighting the scissile bond in each case).” left out

The target in another data set is T4, hGLP-1R (Homo sapiens, UniProt P43220).
T4 construct: expressed in transfected cells
T4 sequence (P43220 24-463): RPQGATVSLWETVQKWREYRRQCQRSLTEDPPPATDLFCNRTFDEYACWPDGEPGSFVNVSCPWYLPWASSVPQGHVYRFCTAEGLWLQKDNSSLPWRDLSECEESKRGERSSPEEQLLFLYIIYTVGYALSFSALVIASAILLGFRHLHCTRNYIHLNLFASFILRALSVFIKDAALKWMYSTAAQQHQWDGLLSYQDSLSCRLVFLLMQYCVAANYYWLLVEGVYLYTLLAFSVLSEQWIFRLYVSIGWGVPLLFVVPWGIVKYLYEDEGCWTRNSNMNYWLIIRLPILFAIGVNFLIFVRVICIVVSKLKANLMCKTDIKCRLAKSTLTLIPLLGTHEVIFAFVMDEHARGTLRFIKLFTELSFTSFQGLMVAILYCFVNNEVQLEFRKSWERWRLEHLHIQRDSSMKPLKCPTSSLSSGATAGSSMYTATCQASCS
Kind of data set: cAMP functional assay, cells expressing human GLP-1 receptor (primary assay). The format is cell-based.

The target in another data set is T5, Neprilysin (rhNEP) (Homo sapiens, UniProt P08473).
T5 construct: purchased R&D Systems 1182-ZNC-010
T5 sequence (P08473 52-750 limits assumed): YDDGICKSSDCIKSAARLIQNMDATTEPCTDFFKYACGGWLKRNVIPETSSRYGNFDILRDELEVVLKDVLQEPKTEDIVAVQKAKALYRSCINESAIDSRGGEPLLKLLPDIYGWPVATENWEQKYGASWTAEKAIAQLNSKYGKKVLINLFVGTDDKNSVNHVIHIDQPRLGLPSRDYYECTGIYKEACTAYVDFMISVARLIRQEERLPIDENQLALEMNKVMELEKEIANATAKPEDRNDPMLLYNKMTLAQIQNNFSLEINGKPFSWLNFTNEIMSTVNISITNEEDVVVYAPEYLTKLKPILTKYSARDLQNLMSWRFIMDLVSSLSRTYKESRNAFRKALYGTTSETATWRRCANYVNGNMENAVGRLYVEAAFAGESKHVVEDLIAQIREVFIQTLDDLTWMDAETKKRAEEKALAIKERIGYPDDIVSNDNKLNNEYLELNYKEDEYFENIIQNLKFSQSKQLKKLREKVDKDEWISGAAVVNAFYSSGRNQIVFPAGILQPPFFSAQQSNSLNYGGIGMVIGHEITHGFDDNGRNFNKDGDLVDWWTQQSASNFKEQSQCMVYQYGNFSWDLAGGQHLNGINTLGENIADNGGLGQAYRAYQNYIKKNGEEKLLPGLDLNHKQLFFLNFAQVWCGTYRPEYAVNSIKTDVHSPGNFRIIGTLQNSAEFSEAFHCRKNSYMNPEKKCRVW
Kind of data set: neprilysin stability study (LC/MS). The data set is classed as in vitro ADME. How it is done:
as §1, §2

The subject of data set [6] is Trypsin, Sigma P7409 (Type II-S). The data set can be described thus: 1 mg/mL lyophilized trypsin from porcine pancreas in 50 mM Tris, 10 mM CaCl2, 150 mM NaCl, 1 mM HCl, pH 7.8. The following applies: 37° C., up to over 18 hours.

Entries after “also recorded” stand apart in the source; their conditions may differ. Where a SMILES comes first, the peptide text is derived from it. [ ]: non-standard residue; d: D form. αMeF = C[C@](N)(Cc1ccccc1)C(=O)O; Aib = CC(C)(N)C(=O)O A value given as a limit tells only on which side of the number the result lay.

“H-(Aib)^2-EGT^5 FTSDV^10 SSYLE^15 GQAAK^20 EFIAW^25 LVKGR^30”: the cleaved bond entry in the data set on Trypsin is “Lys20-E21, by 90 minutes; also recorded: Lys28-G29, by 90 minutes”; in [1], “T5-Phe6; also recorded: S12-Tyr13; also recorded: E21-Phe22; also recorded: A24-Trp25”.
For “H-(Aib)^2-EG-(S)^5-(α-MeF)^6-TSDV^10 SS-(α-MeF)^13-LE^15 GQAAK^20 E-(α-MeF)^22-IA-(α-MeF)^25 LVKGR^30”, the cleaved bond result in the data set with Trypsin was “Lys20-E21, by 90 minutes; also recorded: Lys28-G29, by 90 minutes”; in the data set on Chymotrypsin (rhCTRC) [2] it was “Leu26-Val27, by 48 hours”. The not cleaved result in data set [1] is listed as “no proteolytic degradation over a 96 hour time-course; still stable after 10 days”.
Consider `CC[C@H](C)[C@H](NC(=O)[C@](C)(Cc1ccccc1)NC(=O)[C@H](CCC(=O)O)NC(=O)[C@H](CCCCN)NC(=O)[C@H](C)NC(=O)[C@H](C)NC(=O)[C@H](CCC(N)=O)NC(=O)CNC(=O)[C@H](CCC(=O)O)NC(=O)[C@H](CC(C)C)NC(=O)[C@](C)(Cc1ccccc1)NC(=O)[C@H](CO)NC(=O)[C@H](CO)NC(=O)[C@@H](NC(=O)[C@H](CC(=O)O)NC(=O)[C@H](CO)NC(=O)[C@@H](NC(=O)[C@](C)(Cc1ccccc1)NC(=O)[C@H](CO)NC(=O)CNC(=O)[C@H](CCC(=O)O)NC(=O)C(C)(C)NC(=O)[C@@H](N)Cc1c[nH]cn1)[C@@H](C)O)C(C)C)C(=O)N[C@@H](C)C(=O)N[C@@](C)(Cc1ccccc1)C(=O)N[C@@H](CC(C)C)C(=O)N[C@H](C(=O)N[C@@H](CCCCN)C(=O)NCC(=O)N[C@@H](CCCNC(=N)N)C(N)=O)C(C)C` [SEQ ID NO: 38, H-(Aib)^2-EG-(S)^5-(α-MeF)^6-TSDV^10 SS-(α-MeF)^13-LE^15 GQAAK^20 E-(α-MeF)^22-IA-(α-MeF)^25 LVKGR^30] (H-H[Aib]EGS[αMeF]TSDVSS[αMeF]LEGQAAKE[αMeF]IA[αMeF]LVKGR-NH2), for which the cleavage site observed result at Chymotrypsin (rhCTRC) [3] is on record as “solely at the Leu26/Val27”. Moreover, the “time by which degradation occurred” value on Chymotrypsin (rhCTRC) [3] (37° C.) was no more than 48 h. The EC50 is 102 nM on hGIP-R and 0.0338 nM on hGLP-1R (n = 2). For the same molecule, in [4] (Table 2 description), the “Trypsin resistance/susceptibility (Discussion / Description)” value is reported as “Trypsin susceptibility”. Besides, the “time by which proteolytic degradation occurred (carboxyl side of Lys20, Lys28 and Arg30)” value in data set [4] (trypsin, 37° C.) was no more than 90 min. The fraction remaining at 60 h, 100 μg/mL in data set [5] was roughly 64%. Further, the “potency compared to the GLP-1 comparator peptide, SEQ ID NO:4” value on hGLP-1R is recorded as “equipotent”. In addition, on Neprilysin (rhNEP) (Table 2 description), the “Neprilysin resistance (Discussion / Description)” value is “fully Neprilysin resistant but”. Moreover, the “proteolytic degradation over time-course” value at Neprilysin (rhNEP) (neprilysin, 96 hour time-course) is listed as “no proteolytic degradation”. Besides, the “stability after prolonged exposure” value at Neprilysin (rhNEP) (neprilysin, after 10 days (240 hours)) was “still stable”.
Take “H-(Aib)^2-EG-(S)^5-(α-MeF)^6-TSDV^10 SS-(α-MeF)^13-LE^15 GQAAK^20 E-(α-MeF)^22-IA-(α-MeF)^25 L-(Aib)^27-K-(Aib)^29-R^30”: the not cleaved entry in data set [6] is on record as “intact”.
For the molecule “H-(Aib)^2-EG-(S)^5-(α-MeF)^6-TSDV^10 SS-(α-MeF)^13-LE^15 GQAA-(α-MeK)^20 E-(α-MeF)^22-IA-(α-MeF)^25-(V)^26-V-(α-MeK)^28-G-(G)30”, the not cleaved result in the data set with Trypsin is “significantly extended stability for over 18 hours”; with Chymotrypsin (rhCTRC) [2], “stability for over 60 hours, with no major cleavage products observed”.
